From patent US20050032750A1, “Treating androgen deficiency in female (ADIF)-associated conditions with SARMS” (priority 2003, published 2005)

Assays:
[1] = test system: ovariectomized (OVX) rat model of postmenopausal bone loss; assay: Whole body DEXA analysis (BMD, percent fat mass, body weight) in OVX rat model; format: in vivo; conditions: for change in whole body BMD between day 0 and day 120: 120 days; for body weight gain: day 0 to 120
Description: (§1) One hundred twenty female Sprague-Dawley rats were purchased from Harlan (Indiapolis, Ind.). The animals were housed three per cage and were allowed free access to tap water and commercial rat chow (Harlan Teklad 22/5 rodent diet—8640). During the course of the study, the animals were maintained on a 12 hr light:dark cycle. This study was reviewed and approved by the Institutional Laboratory Care and Use Committee of The Ohio State University. […] Dosing solutions were prepared daily by dissolving drug in dimethyl sulfoxide (DMSO) and diluting in polyethylene glycol 300 (PEG 300). All doses were administered for 120 days via daily subcutaneous injections in a volume of 0.20 ml.
Total body bone mineral density (BMD), percent fat mass (FM), and body weight (BW) were determined by dual energy x-ray absorptiometry (DEXA) (GE, Lunar Prodigy™) using the small animal software (Lunar enCORE, version 6.60.041) on days 0 and 120. Total body data was obtained by selecting an area encompassing the entire animal as the region of interest during data processing. For scanning, the animals were anesthetized with ketariine:xylazine (87:13 mg/kg).
(§2) The results were analyzed using Tukey's honestly significant difference method in a one-way analysis of variance and expressed as mean ±S.E.M. Significance was reported when P<0.05. SPSS 11.5.0 (Chicago, Ill.) was used to analyze the results.

[2] = test system: ovariectomized (OVX) rat model of postmenopausal bone loss; assay: Ex vivo DEXA analysis of L2-L4 vertebrae BMD; format: in vivo; conditions: 120 days
Description: as §1
Immediately following the whole body DEXA scan on day 120, groups 1-11 were sacrificed, and the lumbar vertebrae, femurs, and tibia were excised and cleared of soft tissue. Group 12 was sacrificed at day 210. The excised bones were scanned through a 3 in deep room temperature water bath, to simulate soft tissue and prevent beam-hardening effects. The L2-L4 vertebrae were selected as a region of interest and analyzed for BMD by DEXA.
as §2

[3] = test system: ovariectomized (OVX) rat model of postmenopausal bone loss; assay: Femoral pQCT analysis of mid-shaft cortical content; format: in vivo; conditions: 120 days
Description: as §1
(§3) The right femurs from groups 5, 6, 7, 9, 10, and 12 were sent to Skeletech, Inc. (Bothell, Wash.) for pQCT analysis and biomechanical testing. The femur was subject to pQCT scan using a Stratec XCT RM and associated software (Stratec Medizintechnik GmbH, Pforzheim, Germany. Software version 5.40 C). The femur was scanned at the mid-shaft. The position was verified using scout views and scan results from one 0.5 mm slice perpendicular to the long axis of the femur. Cortical bone mineral content was analyzed. After pQCT analysis, the de-fleshed whole femur was used in the three point bending test. The femur was placed on the lower supports of a three point bending fixture with anterior side facing downward in an Instron Mechanical Testing Machine (Instron 4465 retrofitted to 5500). The upper loading device was aligned to the center of the femoral shaft. The load was applied at a constant displacement rate of 6 mm/min until the femur broke. The location of maximal load was selected manually and values were calculated by machine's software (Merlin II, Instron). Maximum load was measured directly by the mechanical testing machine. The length between two supports was set to 14mm.
as §2

[4] = test system: ovariectomized (OVX) rat model of postmenopausal bone loss; assay: Femoral three point bending test (maximum load); format: in vivo; conditions: OVX rats, 120 days
Description: as §1, §3
The results were analyzed using Tukey's honestly significant difference method in a one-way analysis of variance and expressed as mean ±S.E.M. Significance was reported when P<0.05. […]

[5] = test system: myosin heavy chain (MHC) IIb mRNA; assay: Myosin heavy chain (MHC) IIb mRNA expression in masseter muscle by RT-PCR; format: in vivo, rat; conditions: intact female rats, untreated control = 100%
Excerpt: MHC is the predominant protein in skeletal muscle encoded by a multigene family expressed in a tissue-specific and developmentally regulated manner. In steady state, MRNA expression usually parallels the pattern of MHC protein expression. Because transcription of MHC MRNA occurs in advance of MHC protein translation, and the increased sensitivity of RT-PCR compared to western blotting, rapid changes in mRNA expression can be detected and used to analyze the subtle dynamic effects of muscle anabolism.
The masseter muscle dissected from untreated intact female rats was set as the control level (representing 100%) of MHC IIb expression (FIG. 1A). Intact female rats treated with androgens were evaluated against the untreated controls for the effect of treatment on MHC IIb from masseter.

[6] = test system: ovariectomized female rats; assay: Bone mineral content by whole body DEXA after ovariectomy (Example 2); format: in vivo, rat; conditions: OVX female rats, 30 day treatment period
castrated male rats = assay: Androgenic and anabolic effects in castrated male rats; format: in vivo, rat

C[C@]12CCC(=O)C[C@@H]1CC[C@@H]1[C@@H]2CC[C@]2(C)[C@@H](O)CC[C@@H]12 [DHT, dihydrotestosterone, reference compound]
change in whole body BMD between day 0 and day 120 ([1]; OVX rats, DHT 1 mg/day sc): not significantly different from OVX controls | change in whole body BMD between day 0 and day 120 ([1]; intact rats, DHT 1 mg/day sc): prevented the age related increase in BMD | L2-L4 BMD ([2]; OVX rats, DHT 1 mg/day): only able to partially maintain the L2-L4 BMD | L2-L4 BMD ([2]; intact rats, DHT 1 mg/day): caused a reduction in L2-L4 BMD | Cortical Content (CC) of mid-shaft femur ([3]; OVX rats, DHT 1 mg/day): partially prevented the loss in CC, these results were not significant | femur biomechanical strength (maximum load) ([4]; DHT 1 mg/day): prevent the loss in bone strength

CC(=O)Nc1ccc(OC[C@](C)(O)C(=O)Nc2ccc([N+](=O)[O-])c(C(F)(F)F)c2)cc1 [Compound VI, S-3-(4-acetylamino-phenoxy)-2-hydroxy-2-methyl-N-(4-nitro-3-trifluoromethyl-phenyl)-propionamide]
transcription of MHC type IIb, % of untreated control [5]: 137% | bone mineral content compared with intact control or placebo-treated groups [6]: maintained and improved the bone mineral content | prostate restored, % of intact animals (castrated male rats): 34% | seminal vesicles restored, % of intact animals (castrated male rats): 28% | change in whole body BMD between day 0 and day 120 ([1]; OVX rats, 0.1 mg/day sc): not significantly different from OVX controls | percent body fat at day 120 ([1]; OVX rats, 3.0 mg/day): not different from intact controls | body weight gain ([1]; OVX rats, 3.0 mg/day): gained more weight than the other groups | percent fat mass at day 120 ([1]; OVX rats, 0.1-3.0 mg/day): dose dependent decrease in percent fat mass | body weight gain ([1]; OVX rats, 0.1-3.0 mg/day): dose-dependent trend in body weight gain | change in whole body BMD between day 0 and day 120 ([1]; OVX rats, doses greater than 0.1 mg/day sc): prevent the loss of whole body BMD | mean percent fat mass at day 120 ([1]; intact rats, 1 mg/day): lower in intact Compound VI treated animals than intact controls | L2-L4 BMD ([2]; OVX rats, 0.5 and 3.0 mg/kg dose groups): significantly higher BMD than the OVX control group | L2-L4 BMD ([2]; OVX rats, greater than 0.3 mg/day): not significantly different from intact controls | Cortical Content (CC) of mid-shaft femur ([3]; OVX rats, 1.0 mg/day): completely prevent the loss in CC | Cortical Content (CC) of mid-shaft femur ([3]; OVX rats, 3.0 mg/day): increase the CC in OVX animals above that of intact animals | Cortical Content (CC) of mid-shaft femur ([3]; intact rats, 1 mg/day): not different from intact controls | femur biomechanical strength (maximum load) ([4]; 1.0 mg/day): prevent the loss of bone strength | femur biomechanical strength (maximum load) ([4]; 3.0 mg/day): increase in maximum load

CCC(=O)O[C@H]1CC[C@H]2[C@@H]3CCC4=CC(=O)CC[C@]4(C)[C@H]3CC[C@]12C [testosterone propionate, reference compound]
transcription of MHC type IIb, % of untreated control [5]: 133%
